Measurements published in PMC8237303 (Heliyon, 2021).
Structures can show the parent of a compound that is named as a salt. Bridge positions count the residues as written; N and C are the ends. Ends that are not written are not given here.

Assays:
[1] = system: Nicotinic receptor (Human); test: [3H]-; format: binding; details: Human receptor (Non-recombinant)
[2] = system: Ca channel (Type L, Phenylalkylamine); test: [3H]-; format: binding; details: Rat cerebral cortex
[3] = system: Ca channel (Type L, Benzothiazepine); test: [3H]-; format: binding; details: Rat cerebral cortex
PAF receptor = test: 1-O-Hexadecyl-[3H]-Platelet Activating Factor; format: binding; details: Rabbit platelet
[4] = target: Adenosine A1 receptor (Human) (Homo sapiens, UniProt P30542); test: [3H]8-Cyclopentyl-1,3-dipropylxanthine; format: binding; details: Human recombinant
[5] = target: Dopamine D2 receptor short isoform (Human) (Homo sapiens, UniProt P14416); test: [3H]-Spiperone binding assay; details: Human recombinant
[6] = system: Glutamate receptor (AMPA); test: D,L-alpha-[3H]-Amino-3-Hydroxy-Methylisoxazole-4-Propionic Acid; format: binding; details: Rat cerebral cortex
IP3 receptor = test: D-[3H]-Inositol-1,4,5-Triphosphate binding assay; details: Rat cerebellum
[7] = target: Glucocorticoid receptor (Human) (Homo sapiens, UniProt P04150); test: [3H]-Dexamethasone binding assay; details: Human recombinant
[8] = system: GABA A receptor (Benzodiazepine site); test: [3H]-Flunitrazepam binding assay; details: Rat whole brain
[9] = target: Dopamine transporter (Human) (Homo sapiens, UniProt Q01959); test: [3H]-WIN35,428 binding assay; details: Human recombinant
K Channel KATP = test: [3H]-Glybenclamide binding assay; details: Rat whole brain
[10] = system: Imidazoline receptor (Central); test: [3H]RX 781094; format: binding; details: Rat cerebral cortex
[11] = target: Adenosine A3 receptor (Human) (Homo sapiens, UniProt P0DMS8); test: [125I]-AB-MECA binding assay; details: Human recombinant
[12] = system: Glutamate (NMDA polyamine site); test: [3H]-Ifenprodil binding assay; details: Rat cerebral cortex
[13] = target: Serotonin transporter (Human) (Homo sapiens, UniProt P31645); test: [3H]-Imipramine hydrochloride binding assay; details: Human recombinant
[14] = system: Glutamate receptor (Kainate); test: [3H]-Kainic Acid binding assay; details: Rat whole brain
Monoamine transporter = test: [3H]-α-Dihydrotetrabenazine binding assay; details: Rabbit platelet
[15] = target: Neurokinin NK1 receptor (Human) (Homo sapiens, UniProt P25103); test: [125I]-Substance P binding assay; details: Human recombinant
[16] = system: Glutamate receptor (NMDA agonist site); test: [3H]-CGP-39653 binding assay; details: Rat cerebral cortex
Leukotriene B4 receptor = test: [3H]-Leukotriene B4 binding assay; details: Guinea pig lung
Leukotriene D4 receptor = Leukotriene D4 receptor (Cavia porcellus, UniProt Q2NNR5); test: [3H]-Leukotriene D4 binding assay; details: Guinea pig lung
[17] = target: Glutamate receptor (NMDAglycine site) (Rattus norvegicus, UniProt P35439); test: [3H]-MDL105,519 binding assay; details: Rat cerebral cortex
[18] = system: GABA A receptor (Agonist site); test: [3H]-Muscimol binding assay; details: Rat cerebellum
[19] = target: Opiate δ receptor (Human) (Homo sapiens, UniProt P41143); test: [3H]-Naltrindole binding assay; details: Human recombinant
[20] = system: Ca Channel (Type L, Dihydropyridine); test: [3H]-PN200-110 binding assay; details: Rat cerebral cortex
α1B-Adrenergic receptor = α1B-Adrenergic receptor (Rattus norvegicus, UniProt P15823); test: [3H]-Prazosin binding assay; details: Rat liver
α1A-Adrenergic receptor = α1A-Adrenergic receptor (Rattus norvegicus, UniProt P43140); test: [3H]-Prazosin binding assay; details: Rat submandibular gland
[21] = target: Prostanoid EP2 receptor (Human) (Homo sapiens, UniProt P43116); test: [3H]-Prostaglandin E2 binding assay; details: Human recombinant
[22] = system: Glycine receptor (Strychnine sensitive); format: binding; details: Rat spinal cord
[23] = target: GABA A receptor (Picrotoxin site); test: [3H]-EBOB binding assay; set-up: species or system Rat
[24] = system: Glutamate receptor (NMDA phencycidine site); test: [3H]-; format: binding; details: Rat cerebral cortex
K Channel SkCa = test: [125I]-Apamin binding assay; details: Rat whole brain
[25] = system: Bombesin receptor (Non-selective); test: [125I]-Bombesin binding assay; details: Rat whole brain
[26] = target: Neurokinin NK3 receptor (Human) (Homo sapiens, UniProt P29371); test: [125I]-Neurokinin B; format: binding; details: Human recombinant
CRF1 receptor (Human) = target: T1, CRF1 receptor (Human) (Homo sapiens, UniProt P34998); test: [125I]-Corticotropin Releasing Factor; format: binding; details: Human recombinant
T1 sequence (P34998 24-415): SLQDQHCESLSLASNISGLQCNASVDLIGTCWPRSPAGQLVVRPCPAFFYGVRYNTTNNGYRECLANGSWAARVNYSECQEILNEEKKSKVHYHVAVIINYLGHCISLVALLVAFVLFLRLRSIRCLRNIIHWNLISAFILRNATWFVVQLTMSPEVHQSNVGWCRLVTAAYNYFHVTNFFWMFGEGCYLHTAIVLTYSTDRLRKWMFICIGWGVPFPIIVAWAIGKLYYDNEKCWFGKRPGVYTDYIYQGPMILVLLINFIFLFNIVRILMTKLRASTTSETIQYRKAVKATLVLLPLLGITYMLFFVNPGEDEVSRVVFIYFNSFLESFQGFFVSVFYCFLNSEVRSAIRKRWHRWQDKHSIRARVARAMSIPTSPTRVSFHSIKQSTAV

Serotonin transporter (Human), sequence (P31645 whole entry): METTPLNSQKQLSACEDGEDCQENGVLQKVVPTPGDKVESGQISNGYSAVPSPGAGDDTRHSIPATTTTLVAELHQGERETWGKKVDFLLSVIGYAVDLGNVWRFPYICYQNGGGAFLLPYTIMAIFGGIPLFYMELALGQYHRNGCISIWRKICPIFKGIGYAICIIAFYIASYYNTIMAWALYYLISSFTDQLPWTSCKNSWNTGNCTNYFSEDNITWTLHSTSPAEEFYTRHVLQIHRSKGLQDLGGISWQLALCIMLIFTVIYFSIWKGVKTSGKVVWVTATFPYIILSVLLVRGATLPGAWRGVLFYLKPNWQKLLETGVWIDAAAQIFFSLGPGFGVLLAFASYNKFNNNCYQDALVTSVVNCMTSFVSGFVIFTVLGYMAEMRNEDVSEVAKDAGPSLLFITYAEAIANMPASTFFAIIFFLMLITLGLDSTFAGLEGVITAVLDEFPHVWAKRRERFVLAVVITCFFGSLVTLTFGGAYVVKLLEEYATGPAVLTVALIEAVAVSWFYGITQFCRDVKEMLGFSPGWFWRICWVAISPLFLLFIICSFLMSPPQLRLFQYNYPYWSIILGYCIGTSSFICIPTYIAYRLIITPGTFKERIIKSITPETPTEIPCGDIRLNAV
α1B-Adrenergic receptor, sequence (P15823 whole entry): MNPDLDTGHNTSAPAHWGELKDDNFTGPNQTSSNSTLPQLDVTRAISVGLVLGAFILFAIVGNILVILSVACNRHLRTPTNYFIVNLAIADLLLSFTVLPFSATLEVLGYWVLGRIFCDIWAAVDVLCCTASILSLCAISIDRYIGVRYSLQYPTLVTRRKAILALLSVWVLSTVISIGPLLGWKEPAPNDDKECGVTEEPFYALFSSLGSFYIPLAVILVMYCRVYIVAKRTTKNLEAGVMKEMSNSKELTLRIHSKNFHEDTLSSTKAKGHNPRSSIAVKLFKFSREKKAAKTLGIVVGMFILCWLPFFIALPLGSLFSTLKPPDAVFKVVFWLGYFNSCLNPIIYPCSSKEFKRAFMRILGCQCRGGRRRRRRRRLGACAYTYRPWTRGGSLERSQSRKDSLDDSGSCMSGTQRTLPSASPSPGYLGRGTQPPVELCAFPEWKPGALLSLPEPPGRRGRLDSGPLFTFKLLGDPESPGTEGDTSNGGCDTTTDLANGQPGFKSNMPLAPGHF
Leukotriene D4 receptor, sequence (Q2NNR5 whole entry): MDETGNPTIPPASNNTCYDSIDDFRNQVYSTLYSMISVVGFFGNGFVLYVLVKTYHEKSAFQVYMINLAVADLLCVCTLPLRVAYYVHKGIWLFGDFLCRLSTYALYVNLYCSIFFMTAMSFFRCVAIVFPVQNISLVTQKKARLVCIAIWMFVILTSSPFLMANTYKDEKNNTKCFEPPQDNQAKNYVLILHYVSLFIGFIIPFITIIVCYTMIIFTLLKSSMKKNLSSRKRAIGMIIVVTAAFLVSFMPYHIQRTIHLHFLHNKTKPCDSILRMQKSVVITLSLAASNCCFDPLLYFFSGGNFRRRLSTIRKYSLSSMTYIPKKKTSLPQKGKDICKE
α1A-Adrenergic receptor, sequence (P43140 whole entry): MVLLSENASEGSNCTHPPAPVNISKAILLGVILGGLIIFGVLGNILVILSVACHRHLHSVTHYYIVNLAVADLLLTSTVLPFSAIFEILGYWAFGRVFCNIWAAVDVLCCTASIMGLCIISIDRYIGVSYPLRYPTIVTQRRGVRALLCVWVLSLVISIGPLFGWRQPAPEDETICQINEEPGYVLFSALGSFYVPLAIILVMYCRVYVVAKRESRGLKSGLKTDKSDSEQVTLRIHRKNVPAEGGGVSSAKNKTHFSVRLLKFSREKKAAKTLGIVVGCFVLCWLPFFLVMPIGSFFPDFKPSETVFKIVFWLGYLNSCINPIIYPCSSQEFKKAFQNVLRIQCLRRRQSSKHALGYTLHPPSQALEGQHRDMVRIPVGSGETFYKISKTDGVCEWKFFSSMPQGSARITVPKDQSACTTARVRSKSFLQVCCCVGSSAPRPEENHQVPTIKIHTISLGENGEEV
Glucocorticoid receptor (Human), sequence (P04150 whole entry): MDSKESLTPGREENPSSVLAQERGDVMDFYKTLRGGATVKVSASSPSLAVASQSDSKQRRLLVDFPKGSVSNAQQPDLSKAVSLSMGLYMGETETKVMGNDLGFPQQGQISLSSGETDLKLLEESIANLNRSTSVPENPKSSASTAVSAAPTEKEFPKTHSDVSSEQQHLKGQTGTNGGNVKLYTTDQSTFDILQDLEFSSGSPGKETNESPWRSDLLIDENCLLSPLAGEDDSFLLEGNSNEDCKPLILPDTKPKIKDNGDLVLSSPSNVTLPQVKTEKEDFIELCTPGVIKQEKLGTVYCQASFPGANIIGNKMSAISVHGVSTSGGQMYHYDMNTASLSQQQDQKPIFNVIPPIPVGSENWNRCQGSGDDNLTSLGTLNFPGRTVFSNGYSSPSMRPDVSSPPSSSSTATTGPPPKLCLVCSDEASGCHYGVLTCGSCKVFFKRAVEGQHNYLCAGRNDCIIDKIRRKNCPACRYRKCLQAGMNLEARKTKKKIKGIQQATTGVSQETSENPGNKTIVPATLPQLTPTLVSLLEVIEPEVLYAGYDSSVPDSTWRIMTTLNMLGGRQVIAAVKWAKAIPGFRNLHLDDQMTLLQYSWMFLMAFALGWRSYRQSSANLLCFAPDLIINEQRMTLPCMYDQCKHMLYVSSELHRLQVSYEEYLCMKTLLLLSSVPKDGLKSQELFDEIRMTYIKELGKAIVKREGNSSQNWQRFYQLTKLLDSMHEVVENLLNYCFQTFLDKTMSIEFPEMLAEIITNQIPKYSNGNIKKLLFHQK
Adenosine A3 receptor (Human), sequence (P0DMS8 whole entry): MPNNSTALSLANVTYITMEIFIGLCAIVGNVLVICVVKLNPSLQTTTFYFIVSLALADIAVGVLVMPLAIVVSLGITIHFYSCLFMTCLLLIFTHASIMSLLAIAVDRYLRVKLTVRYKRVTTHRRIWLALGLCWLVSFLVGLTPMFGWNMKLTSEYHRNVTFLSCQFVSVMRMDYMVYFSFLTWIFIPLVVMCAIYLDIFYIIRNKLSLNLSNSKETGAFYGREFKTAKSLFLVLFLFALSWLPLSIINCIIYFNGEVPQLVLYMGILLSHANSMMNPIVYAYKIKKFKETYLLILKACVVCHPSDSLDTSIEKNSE
Glutamate receptor (NMDAglycine site), sequence (P35439 394-800 limits assumed): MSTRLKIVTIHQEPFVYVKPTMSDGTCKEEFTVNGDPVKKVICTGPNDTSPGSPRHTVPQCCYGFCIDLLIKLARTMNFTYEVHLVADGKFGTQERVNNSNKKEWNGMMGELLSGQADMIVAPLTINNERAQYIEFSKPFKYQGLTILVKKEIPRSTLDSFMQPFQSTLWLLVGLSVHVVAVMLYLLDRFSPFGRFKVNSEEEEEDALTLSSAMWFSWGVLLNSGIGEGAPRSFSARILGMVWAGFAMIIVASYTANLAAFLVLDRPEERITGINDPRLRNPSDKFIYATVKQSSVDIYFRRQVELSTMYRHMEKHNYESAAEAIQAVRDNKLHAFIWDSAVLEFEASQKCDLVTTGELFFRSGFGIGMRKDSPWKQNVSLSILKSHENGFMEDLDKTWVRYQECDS
Opiate δ receptor (Human), sequence (P41143 whole entry): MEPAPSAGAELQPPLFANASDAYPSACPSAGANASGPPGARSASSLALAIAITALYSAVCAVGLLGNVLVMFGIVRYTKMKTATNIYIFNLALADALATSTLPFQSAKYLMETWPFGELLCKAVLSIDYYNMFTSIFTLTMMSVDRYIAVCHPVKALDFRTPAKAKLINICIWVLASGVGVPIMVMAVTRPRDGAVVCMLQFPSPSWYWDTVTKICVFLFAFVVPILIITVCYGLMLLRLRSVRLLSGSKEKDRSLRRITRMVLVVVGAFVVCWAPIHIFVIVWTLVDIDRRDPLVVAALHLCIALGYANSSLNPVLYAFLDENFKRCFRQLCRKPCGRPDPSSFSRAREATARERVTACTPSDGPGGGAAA
Neurokinin NK1 receptor (Human), sequence (P25103 whole entry): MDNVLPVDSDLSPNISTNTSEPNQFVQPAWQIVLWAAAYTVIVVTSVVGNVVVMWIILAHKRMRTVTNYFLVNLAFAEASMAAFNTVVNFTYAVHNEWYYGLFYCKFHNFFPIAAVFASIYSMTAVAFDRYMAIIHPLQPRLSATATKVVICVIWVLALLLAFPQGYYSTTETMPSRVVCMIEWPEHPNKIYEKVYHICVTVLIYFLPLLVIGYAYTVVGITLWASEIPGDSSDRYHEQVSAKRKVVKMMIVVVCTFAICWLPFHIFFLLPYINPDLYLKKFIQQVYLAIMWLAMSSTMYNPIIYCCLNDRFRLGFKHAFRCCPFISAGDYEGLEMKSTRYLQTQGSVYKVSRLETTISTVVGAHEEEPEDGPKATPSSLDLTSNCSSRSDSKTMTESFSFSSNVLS
Neurokinin NK3 receptor (Human), sequence (P29371 whole entry): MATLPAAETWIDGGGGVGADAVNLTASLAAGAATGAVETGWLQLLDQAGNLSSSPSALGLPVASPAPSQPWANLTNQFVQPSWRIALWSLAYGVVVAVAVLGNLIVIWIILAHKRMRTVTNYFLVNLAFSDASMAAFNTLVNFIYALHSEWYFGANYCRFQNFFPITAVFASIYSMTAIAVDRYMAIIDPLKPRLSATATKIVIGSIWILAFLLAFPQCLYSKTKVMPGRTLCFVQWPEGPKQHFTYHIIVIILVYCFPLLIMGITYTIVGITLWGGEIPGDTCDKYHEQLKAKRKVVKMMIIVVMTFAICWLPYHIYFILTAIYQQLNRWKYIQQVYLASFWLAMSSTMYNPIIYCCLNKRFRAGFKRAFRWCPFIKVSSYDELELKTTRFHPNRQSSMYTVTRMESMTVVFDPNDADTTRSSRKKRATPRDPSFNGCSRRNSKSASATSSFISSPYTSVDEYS

Cl.Cl.Clc1ccc(C2CC3CCC2N3)cn1.O (racemic) [(±)-Epibatidine dihydrochloride hydrate]
Inhibition by a positive substance (%) [1]: 100%

COc1ccc(CCN(C)CCCC(C#N)(c2cc(OC)c(OC)c(OC)c2)C(C)C)cc1OC.Cl (racemic) [(±)-Methoxyverapamil hydrochloride]
Inhibition by a positive control substance (%) [2]: 100%

COc1ccc([C@@H]2Sc3ccccc3N(CCN(C)C)C(=O)[C@@H]2OC(C)=O)cc1.Cl (relative stereo) [(+)-cis-Diltiazem hydrochloride]
Inhibition by a positive substance (%) [3]: 96.98%

CCCCCCCCCCCCCCCCOC[C@@H](O)COP(=O)([O-])OCC[N+](C)(C)C [1-O-Palmityl-sn-glycero-3-phosphocholine]
Inhibition by a positive substance (%) (PAF receptor): 100%

CCCn1c(=O)c2[nH]c(C3CCCC3)nc2n(CCC)c1=O [8-Cyclopentyl-1,3-dipropylxanthine]
Inhibition by a positive substance (%) [4]: 96.61%

CC(C)(C)[C@]1(O)CCN2C[C@H]3c4ccccc4CCc4cccc(c43)[C@@H]2C1 [(+)-Butaclamol hydrochloride]
Inhibition by a positive substance (%) [5]: 94.16%

Cc1o[nH]c(=O)c1C[C@H](N)C(=O)O [(S)-AMPA]
Inhibition by a positive substance (%) [6]: 100%

O=P([O-])([O-])OC1C(O)C(O)C(OP(=O)([O-])[O-])C(OP(=O)([O-])[O-])C1O.[K+].[K+].[K+].[K+].[K+].[K+] [D-myo-Inositol 1,4,5-trisphosphate potassium salt]
Inhibition by a positive substance (%) (IP3 receptor): 100%

C[C@@H]1C[C@H]2[C@@H]3CCC4=CC(=O)C=C[C@]4(C)[C@@]3(F)[C@@H](O)C[C@]2(C)[C@@]1(O)C(=O)CO [Dexamethasone]
Inhibition by a positive substance (%) [7]: 99.36%

CN1C(=O)CN=C(c2ccccc2)c2cc(Cl)ccc21 [Diazepam]
Inhibition by a positive substance (%) [8]: 100%

Fc1ccc(C(OCCN2CCN(CCCc3ccccc3)CC2)c2ccc(F)cc2)cc1 [GBR12909 dihydrochloride]
Inhibition by a positive control substance (%) [9]: 99.41%

COc1ccc(Cl)cc1C(=O)NCCc1ccc(S(=O)(=O)NC(=O)NC2CCCCC2)cc1 [Glibenclamide]
Inhibition by a positive substance (%) (K Channel KATP): 100%

CC(=O)O.N=C(N)N/N=C/c1c(Cl)cccc1Cl [Guanabenz acetate salt]
Inhibition by a positive substance (%) [10]: 100%

CNC(=O)[C@H]1O[C@@H](n2cnc3c(NCc4cccc(I)c4)ncnc32)[C@H](O)[C@@H]1O [IB-MECA]
Inhibition by a positive substance (%) [11]: 99.41%

CC(C(O)c1ccc(O)cc1)N1CCC(Cc2ccccc2)CC1.CC(C(O)c1ccc(O)cc1)N1CCC(Cc2ccccc2)CC1.O=C(O)C(O)C(O)C(=O)O (stereo not drawn) [Ifenprodil tartrate salt]
Inhibition by a positive substance (%) [12]: 99.68%

CN(C)CCCN1c2ccccc2CCc2ccccc21 [Imipramine hydrochloride]
Inhibition by a positive substance (%) [13]: 96.87%

C=C(C)[C@H]1CN[C@H](C(=O)O)[C@H]1CC(=O)O.O [Kainic acid monohydrate]
Inhibition by a positive substance (%) [14]: 100%

O=C(O)C(O)C(O)C(=O)O.O=C(c1ccc(F)cc1)C1CCN(CCn2c(=O)[nH]c3ccccc3c2=O)CC1 [Ketanserin tartrate salt]
Inhibition by a positive substance (%) (Monoamine transporter): 100%

Ic1ccccc1CN[C@@H]1C2CCN(CC2)[C@@H]1C(c1ccccc1)c1ccccc1 [L-703,606 oxalate salt hydrate]
Inhibition by a positive substance (%) [15]: 99.87%

Cl.N[C@@H](CCC(=O)O)C(=O)O [L-Glutamic acid hydrochloride]
Inhibition by a positive substance (%) [16]: 100%

CCCCC/C=C\C[C@@H](O)/C=C/C=C/C=C\[C@@H](O)CCCC(=O)O [Leukotriene B4]
Inhibition by a positive control substance (%) (Leukotriene B4 receptor): 92.71%

CCCCC/C=C\C\C=C/C=C/C=C/[C@@H](SC[C@H](N)C(=O)NCC(=O)O)[C@@H](O)CCCC(=O)O [Leukotriene D4]
Inhibition by a positive substance (%) (Leukotriene D4 receptor): 96.63%

O=C(O)/C(=C/c1c(C(=O)O)[nH]c2cc(Cl)cc(Cl)c12)c1ccccc1 [MDL105,519]
Inhibition by a positive substance (%) [17]: 100%

NCc1cc(=O)[nH]o1 [Muscimol]
Inhibition by a positive substance (%) [18]: 99.04%

CS(=O)(=O)O.Oc1ccc2c3c1O[C@H]1c4oc5ccccc5c4C[C@@]4(O)[C@@H](C2)N(CC2CC2)CC[C@]314 [Naltriben methanesulfonate hydrate]
Inhibition by a positive substance (%) [19]: 100%

CCOC(=O)C1=C(C)NC(C)=C(C(=O)OC)C1c1cccc([N+](=O)[O-])c1 (stereo not drawn) [Nitrendipine]
Inhibition by a positive substance (%) [20]: 100%

COc1cc2nc(N3CCN(C(=O)c4ccco4)CC3)nc(N)c2cc1OC [Prazosin hydrochloride]
Inhibition by a positive substance (%) (α1B-Adrenergic receptor): 100% | Inhibition by a positive substance (%) (α1A-Adrenergic receptor): 100%

CCCCC[C@H](O)/C=C/[C@H]1[C@H](O)CC(=O)[C@@H]1C/C=C\CCCC(=O)O [Prostaglandin E2]
Inhibition by a positive substance (%) [21]: 100%

O=C1C[C@@H]2OCC=C3CN4CC[C@]56c7ccccc7N1[C@H]5[C@H]2[C@H]3C[C@H]46 [Strychnine]
Inhibition by a positive substance (%) [22]: 98.79%

C#Cc1ccc(C23OCC(CCC)(CO2)CO3)cc1 [[^3H]-EBOB, [^3H]-ethynylbicycloorthobenzoate]
Kd ([23]; read-out: Kd (nmol/L), binding of the radio-labeled ligand, 7 concentrations, GABAA (Picrotoxin site)): 4.18 nmol/L

(+)-MK-801 hydrogen maleate
Inhibition by a positive substance (%) [24]: 100%

Apamin (CNCKAPETALCARRCQQH-NH2; disulfide 1-11, 3-15; ends not checked; UniProt P01500 28-45, looked up)
Inhibition by a positive substance (%) (K Channel SkCa): 100%

Bombesin acetate hydrate
Inhibition by a positive control substance (%) [25]: 98.81%

Picrotoxin
Inhibition by a positive control substance (%) ([23]; Rat cerebral cortex): 94.33% | IC50 ([23]; read-out: IC50 for inhibition of the [3H]-EBOB binding, rat cerebral cortex preparation, 7 concentrations, duplicate): 602 nM | Ki ([23]; read-out: Ki (mol/L), inhibition of the binding of [3H]-EBOB, GABAA (Picrotoxin site), Ki=IC50/(1+[L/Kd])): 313 nM

Succinyl-[Asp 6, N–Me-Phe 8]-Substance P Fragment 6–11
Inhibition by a positive substance (%) [26]: 100%

Urocortin human (DNPSLSIDLTFHLLRTLLELARTQSQRERAEQNRIIFDSV; ends and bridges not checked; UniProt P55089 83-122, looked up)
Inhibition by a positive substance (%) (CRF1 receptor (Human)): 100%
